Tests used:
MIRLET7BHG promoter = experiment: Bisulfite sequencing of let-7 host gene promoter; assay type: cell-based, human; conditions: bladder cancer cells
Description: Cell pellets were digested with 1% sodium dodecyl sulfate and 50 μg/mL proteinase K (Roche, Nutley, USA) at 48° C. overnight. Isolation of genomic DNA from cell lines was performed with the phenol-chloroform extraction protocol followed by ethanol precipitation. Bisulfite treatment was conducted using an EpiTect Bisulfite Kit (QIAGEN, Valencia, USA), and was subsequently amplified via PCR using primers as shown in the following table. PCR products were purified using the QIAquick Gel Extraction kit (Qiagen), and sequenced by Genewiz DNA sequencing service (Genewiz, South Plainfield, USA). The data were analyzed using the Sequence Scanner v1.0 software (Life technologies). A methylation frequency of ≥50% of total CpG sites within the amplified region was considered “methylation-positive”. For demethylation, cells (1×10^6/T-75 flask) were treated with […] of the demethylating agent 5-Aza-dC (Sigma) dissolved in 50% acetic acid or were mock-treated with phosphate buffered saline (PBS) including the same amount of acetic acid every 24 hours for 5 days. When combined with the histone deacetylase inhibitor TSA (Sigma), 300 nmol/L TSA was added to the medium for the final 24 hours.

SOX2 = SOX2 expression by western blotting / flow cytometry; assay type: cell-based, human
Description: (§1) Whole cell lysates were extracted using RIPA buffer (Thermo Scientific) supplemented with 10 μL/mL Halt™ Protease Inhibitor Cocktail Kit (Life Technologies) and 30 μL/mL Halt™ Phosphatase Inhibitor Cocktail Kit (Life Technologies). The protein concentrations were determined using a Pierce™ BCA Protein Assay Kit (Life Technologies), and the protein were separated on NuPAGE® 4-12% Bis-Tris Gel (Life Technologies) according to the manufacturer's protocol. COX2 (D5H5), NANOG (D73G4), OCT4 (D7O5Z), CD133 (A3G6K), Snail (C15D3), ZEB1 (D80D3), Vimentin (D21H3), CDH2 (D4R1H), CDH1 (24E10), p-EGFR (D7A5), EGFR (D38B1), p-AKT (D9E), AKT (cat #, 9272), p-ERK (D13.14.4E), ERK (137F5), p-YAP1 (D9W2I), p-Src (cat #, 2101), Src (36D10), DNMT1 (D63A6), DNMT3A (D23G1), and DNMT3B (D7O7O) antibodies were obtained from Cell Signaling Technology (Danvers, Mass., USA), except for SOX2 (EPR3131; Abcam, Cambridge, USA), YAP1 (ab52771; Abcam), CD24 (cat #, AF5247-SP; R&D Systems, Minneapolis USA) and β-actin (A2228; Sigma-Aldrich). Secondary horseradish peroxidase (HRP)-conjugated antibodies were obtained from Cell Signaling Technology, and chemiluminescent detection of HRP-labeled antibodies was performed using Amersham ECL Prime Western Blotting Detection Reagent (GE Healthcare, Piscataway, USA). As loading control, β-actin was used.
For extracellular staining, cells (1×10^6/100 μL stain buffer) were incubated with PE-Vio770-conjugated anti-human CD133 (293C3; Miltenyi Biotec, Auburn, USA) or PE-conjugated anti-human CD24 antibody (cat #, 560991; BD Biosciences) for 30 min at 4° C. in dark. PE-Vio770-conjugated Isotype (cat #, 130-098-563; Miltenyi Biotec) and PE-conjugated IgG2a, κ Isotype (cat #, 555574; BD Biosciences) were used as control for CD133 and CD24 staining, respectively. Staining for intracellular SOX2 was carried out using the BD Cytofix/Cytoperm Fixation/Permeabilization Kit (BD Biosciences) according to manufacturer's protocol. The cells were incubated with Alexa Fluor 647-conjugated anti-SOX2 antibody (cat #, 560302; BD Biosciences) for 40 min at 4° C. in dark. Alexa Fluor 647-conjugated anti-IgG2a, κ Isotype (cat #, 558053; BD Biosciences) was used as control. Data were acquired on a BD FACSCalibur flow cytometer (BD Biosciences) using BD CellQuest Pro software (BD Biosciences) and analyzed with FlowJo software v10.1 (Tree Star, Ashland, USA).

YAP1 = YAP1 expression by western blotting; assay type: cell-based, human
Description: as §1

[1] = Body weight of treated mice; assay type: in vivo; conditions: compared with control
Description: For celecoxib and/or VP treatment, celecoxib (5 mg/kg) was administered via intraperitoneal (i.p.) injection once a day (17), and VP (50 mg/kg) was administered via i.p. every other day (18). EP4 antagonist ONO-AE3-208 (10 mg/kg) was administered via i.p. once a day (19). Control was applied with same volume (100 μL per injection) of 10% dimethyl sulphoxide in […] (Sigma-Aldrich). For GEM and CDDP (GC) treatment (i.p.), CDDP (6 mg/kg) was only applied after the first GEM (60 mg/kg) treatment on day 2, followed by three consecutive treatments of GEM on day 5, 8 and 11 (17). The next cycle was started on day 18, and the treatment was continued until tumor reached 2 cm in diameter. For erlotinib treatment, the mice were treated once a day, 6 days per week, by oral gavage with erlotinib (100 mg/kg) or control (PBS containing 0.5% methyl cellulose (Sigma-Aldrich) and 0.1% TWEEN 80) (20). Tumor size was measured at least every three days. […] To establish xenograft model with acquired resistance to erlotinib, erlotinib sensitive 5637 cells were injected subcutaneously into the both flanks of 4-5 week-old NSG mice, and the tumors were consecutively passaged from NSG mice treated with erlotinib and celecoxib until the development of refractory tumors. […]

urothelial CSCs = experiment: Sphere formation assay (CSC properties); assay type: cell-based, human
Description: Sphere formation was induced by culturing cells (2×10^4/well) in DMEM/Ham's F12 50/50 Mix (Mediatech) supplemented with B-27 (Life Technologies), 20 ng/mL FGF-basic (Peprotech), 20 ng/mL EGF (Peprotech). Cell culture was performed in ultra-low attachment 6 well plates (Corning, Lowell, USA) for 10 days. The medium was replaced every other day. Sphere formation was evaluated using the inverted phase-contrast microscope, and single sphere with a diameter larger than 100 μm was counted using NIS-Elements Microscope Imaging Software. To redifferentiate spheres, spheres were plated in standard growth medium with 10% FBS in dishes supporting cell attachment, and incubated for 7 days. For self-renewal assay, primary spheres were collected by gentle centrifugation (5 min at 400×g), dissociated with Stempro Accutase Cell Dissociation Reagent (Life Technologies), and mechanically disrupted with a pipette. The cell suspension was sieved through 40 μm cell strainer cap filter to achieve a single-cell suspension, and then equal numbers of alive cells were plated in ultralow attachment plates to generate the second spheres. Again, spheres were counted on day 14 and digested to generate the third Spheres. All the experiments were performed in triplicate and repeated at least three times.

[2] = COX2 inhibitor added to erlotinib, basal-type cells
[3] = agent alone, bladder cancer cells

What does the source list for Cc1ccc(-c2cc(C(F)(F)F)nn2-c2ccc(S(N)(=O)=O)cc2)cc1 [celecoxib, Celecoxib]?
promoter methylation of the let-7 host gene (MIRLET7BHG promoter): demethylated; SOX2 expression (SOX2; [2]): impaired; SOX2 expression (SOX2; [3]): repressed; YAP1 expression (YAP1; [2]): no longer able to induce; YAP1 expression (YAP1; [3]): induced; body weight loss of mice [1]: did not observe body weight loss; sphere formation (urothelial CSCs; COX2 inhibitor added to erlotinib, basal-type cells, 72 hours): impaired; sphere formation / sphere-forming ability (urothelial CSCs; [3]): repressed

— patent US10888549B2, “Pharmaceutical agents targeting cancer stem cells” (THE JOHNS HOPKINS UNIVERSITY, priority 2016, dated 2021)
